# Reference: patent US11028079B2 (ConverGene LLC, priority 2015, dated 2021)
# Biological target: T1, BRD4 bromodomains (Homo sapiens, UniProt O60885)
# T1 construct: fused on or other part: T7 phage capsid protein (phage-display fusion; the phage DNA is read out by qPCR)
# Experiment: BROMOscan bromodomain competition binding assay (DiscoveRx)
# Conditions: Kd from 11 compound concentrations ranging from 0 to 10 μM, read-out: BROMOscan Relative Activity
# Method in brief: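 Compounds in 0.1% DMSO/0.9% MEG competed with a solid-phase acetylated peptide for T7 phage-fused BRD4 bromodomains, with the retained bromodomain measured by qPCR.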
row,Structure (SMILES),Kd [µM]
1,"CN(C)CCN1CCN(c2nc(NCc3cccc(Cl)c3)c3cc(-c4cnc(O)c(F)c4)ccc3n2)CC1 [Example 86, 5-(4-((3-chlorobenzyl)amino)-2-(4-(2-(dimethylamino)ethyl)piperazin-1-yl)quinazolin-6-yl)-3-fluoropyridin-2-ol]",0.5 to 5
2,"Cc1noc(C)c1-c1ccc2nc(N3CCN(CC(=O)N(C)C)CC3)nc(NCc3cccc(Cl)c3)c2c1 [Example 52, 2-(4-(4-((3-chlorobenzyl)amino)-6-(3,5-dimethylisoxazol-4-yl)quinazolin-2-yl)piperazin-1-yl)-N,N-dimethylacetamide]",< 0.5
3,"Cn1cc(-c2ccc3nc(-c4cnn(CCO)c4)nc(NCc4cccc(Cl)c4)c3c2)ccc1=O [Example 114, 5-(4-((3-chlorobenzyl)amino)-2-(1-(2-hydroxyethyl)-1H-pyrazol-4-yl)quinazolin-6-yl)-1-methylpyridin-2(1H)-one]",0.5 to 5
4,"Cc1noc(C)c1-c1ccc2nc(-c3cnn(CC(C)(C)O)c3)nc(NCc3cccc(Cl)c3)c2c1 [Example 56, 1-(4-(4-((3-chlorobenzyl)amino)-6-(3,5-dimethylisoxazol-4-yl)quinazolin-2-yl)-1H-pyrazol-1-yl)-2-methylpropan-2-ol]",< 0.5
5,"Cc1noc(C)c1-c1ccc2nc(N3CCc4c(cnn4C)C3)nc(NCc3cccc(Cl)c3)c2c1 [Example 278, N-(3-chlorobenzyl)-6-(3,5-dimethylisoxazol-4-yl)-2-(1-methyl-1,4,6,7-tetrahydro-5H-pyrazolo[4,3-c]pyridin-5-yl)quinazolin-4-amine]",0.5 to 5
6,"Cc1noc(C)c1-c1ccc2nc(N3CCCC(CO)C3)nc(NCc3cccc(Cl)c3)c2c1 (centres unmarked) [Example 24, (1-(4-((3-chlorobenzyl)amino)-6-(3,5-dimethylisoxazol-4-yl)quinazolin-2-yl)piperidin-3-yl)methanol]",0.5 to 5
7,"Cn1cc(-c2ccc3nc(-c4cnn(CCO)c4)nc(NCc4cncc(Cl)c4)c3c2)ccc1=O [Example 143, 5-(4-(((5-chloropyridin-3-yl)methyl)amino)-2-(1-(2-hydroxyethyl)-1H-pyrazol-4-yl)quinazolin-6-yl)-1-methylpyridin-2(1H)-one]",< 0.5
8,"CC(=O)N1CC(n2cc(-c3nc(N4CCOC[C@@H]4c4ccccc4)c4cc(-c5c(C)noc5C)ccc4n3)cn2)C1 [Example 324, (S)-1-(3-(4-(6-(3,5-dimethylisoxazol-4-yl)-4-(3-phenylmorpholino)quinazolin-2-yl)-1H-pyrazol-1-yl)azetidin-1-yl)ethan-1-one]",< 0.5
9,"COc1cccc(CNc2nc(N3CCN(CCN(C)C)CC3)nc3ccc(-c4c(C)noc4C)cc23)c1 [Example 73, 2-(4-(2-(dimethylamino)ethyl)piperazin-1-yl)-6-(3,5-dimethylisoxazol-4-yl)-N-(3-methoxybenzyl)quinazolin-4-amine]",< 0.5
10,"Cc1noc(C)c1-c1ccc2nc(C(=O)NC3CCS(=O)(=O)CC3)nc(NC3(c4cccc(Cl)c4)CC3)c2c1 [Example 246, 4-((1-(3-chlorophenyl)cyclopropyl)amino)-6-(3,5-dimethylisoxazol-4-yl)-N-(1,1-dioxidotetrahydro-2H-thiopyran-4-yl)quinazoline-2-carboxamide]",< 0.5
11,"Cn1cc(C(=O)N2CCN(c3nc(NCc4cccc(Cl)c4)c4cc(-c5ccc(=O)n(C)c5)ccc4n3)CC2)cn1 [Example 122, 5-(4-((3-chlorobenzyl)amino)-2-(4-(1-methyl-1H-pyrazole-4-carbonyl)piperazin-1-yl)quinazolin-6-yl)-1-methylpyridin-2(1H)-one]",< 0.5
12,"Cc1noc(C)c1-c1ccc2nc(N3CCN(CCCN(C)C)CC3)nc(NCc3cccc(Cl)c3)c2c1 [Example 16, N-(3-chlorobenzyl)-2-(4-(3-(dimethylamino)propyl)piperazin-1-yl)-6-(3,5-dimethylisoxazol-4-yl)quinazolin-4-amine]",< 0.5
13,"Cn1cc(-c2ccc3nc(N4CCN(CC(C)(C)O)CC4)nc(NCc4cncc(Cl)c4)c3c2)ccc1=O [Example 135, 5-(4-(((5-chloropyridin-3-yl)methyl)amino)-2-(4-(2-hydroxy-2-methylpropyl)piperazin-1-yl)quinazolin-6-yl)-1-methylpyridin-2(1H)-one]",< 0.5
14,"Cn1cc(-c2ccc3nc(-c4cnn(C(C)(C)CO)c4)nc(NCc4cccc(Cl)c4)c3c2)ccc1=O [Example 105, 5-(4-((3-chlorobenzyl)amino)-2-(1-(1-hydroxy-2-methylpropan-2-yl)-1H-pyrazol-4-yl)quinazolin-6-yl)-1-methylpyridin-2(1H)-one]",< 0.5
15,"Cc1noc(C)c1-c1ccc2nc(C(=O)NC3CN(C)C3)cc(NCc3cccc(Cl)c3)c2c1 [Example 234, 4-((3-chlorobenzyl)amino)-6-(3,5-dimethylisoxazol-4-yl)-N-(1-methylazetidin-3-yl)quinoline-2-carboxamide]",< 0.5
16,"Cc1noc(C)c1-c1ccc2nc(N3CCN(CCN(C)C)CC3)cc(NCc3cccc(Cl)c3)c2c1 [Example 26, N-(3-chlorobenzyl)-2-(4-(2-(dimethylamino)ethyl)piperazin-1-yl)-6-(3,5-dimethylisoxazol-4-yl)quinolin-4-amine]",< 0.5
17,"Cc1noc(C)c1-c1ccc2nc(C(=O)NCC3CN(C)C3)nc(NC3(c4cccc(Cl)c4)CC3)c2c1 [Example 240, 4-((1-(3-chlorophenyl)cyclopropyl)amino)-6-(3,5-dimethylisoxazol-4-yl)-N-((1-methylazetidin-3-yl)methyl)quinazoline-2-carboxamide]",< 0.5
18,"Cc1noc(C)c1-c1ccc2nc(C(=O)NC3CCS(=O)(=O)CC3)nc(NCc3cncc(Cl)c3)c2c1 [Example 239, 4-(((5-chloropyridin-3-yl)methyl)amino)-6-(3,5-dimethylisoxazol-4-yl)-N-(1,1-dioxidotetrahydro-2H-thiopyran-4-yl)quinazoline-2-carboxamide]",< 0.5
19,"Cc1noc(C)c1-c1ccc2c(NCc3cccc(Cl)c3)nc(-c3cnn(CC(N)=O)c3)nc2c1 [Example 51, 2-(4-(4-((3-chlorobenzyl)amino)-7-(3,5-dimethylisoxazol-4-yl)quinazolin-2-yl)-1H-pyrazol-1-yl)acetamide]",0.5 to 5
20,"Cc1nocc1-c1ccc2nc(N3CCN(CCN(C)C)CC3)nc(NCc3cccc(Cl)c3)c2c1 [Example 93, N-(3-chlorobenzyl)-2-(4-(2-(dimethylamino)ethyl)piperazin-1-yl)-6-(3-methylisoxazol-4-yl)quinazolin-4-amine]",< 0.5
21,"Cc1noc(C)c1-c1ccc2nc(N(C)CCN(C)C)nc(NCc3cccc(Cl)c3)c2c1 [Example 22, N4-(3-chlorobenzyl)-N2-(2-(dimethylamino)ethyl)-6-(3,5-dimethylisoxazol-4-yl)-N2-methylquinazoline-2,4-diamine]",< 0.5
22,"Cc1noc(C)c1-c1ccc2nc(N3CCN(CCCN(C)C)CC3)nc(NCc3cncc(Cl)c3)c2c1 [Example 130, N-((5-chloropyridin-3-yl)methyl)-2-(4-(3-(dimethylamino)propyl)piperazin-1-yl)-6-(3,5-dimethylisoxazol-4-yl)quinazolin-4-amine]",< 0.5
23,"Cc1noc(C)c1-c1ccc2nccc(NCc3cccc(Cl)c3)c2c1 [Example 3, N-(3-chlorobenzyl)-6-(3,5-dimethylisoxazol-4-yl)quinolin-4-amine]",0.5 to 5
